Test results published in US20170209402A1, “CARBOXY-CYCLOPROPYL UNDECANOL COMPOUNDS FOR TREATMENT OF LIVER DISEASE AND OTHER MEDICAL DISORDERS” (Esperion Therapeutics, Inc., priority 2014, published 2017).

System: C57BL/6N male mice fed high-fat diet
Assay: Hepatic triglyceride levels in C57BL/6N male mice receiving a high-fat diet
Type: in vivo
Details: 3 weeks HFD, compound as diet admix 289 mg/kg HFD (~30 mg/kg/day) for final 2 weeks, 4-hour fast, group mean, HFD alone 1.6, NC 0.6
Procedure: An assay was performed to determine the effect of administering Compounds A and B to C57BL/6N male mice receiving a high-fat diet.
C57BL/6N male mice were obtained from Charles River Laboratories (Montreal, QC, Canada) at 11 weeks of age and singly housed on alpha-dri paper bedding on a normal 12 hour, 6 am-6 pm light-dark cycle. Upon arrival, 27 mice were fed D12492 high fat diets (HFD) containing 60% kcal fat while 9 mice were fed D12450K normal chow diet (NC) for 1 week with free access to water. Mice that had been fed D12492 were allocated into three equally distributed treatment arms of 9 mice each at 12 weeks of age based on 4-hour fasted blood glucose and body weight. […]
Following a 4-hour fast, mice were euthanized and a random lobe of liver was flash frozen in liquid nitrogen for subsequent hepatic lipid analysis. […] A 10 μL aliquot of the prepared sample was injected into the HPLC-ELSD system utilizing a Spherisorb® S5W Silica gel 5 μm, 100×4.6 mm ID HPLC column (Waters) running a 99:1 isooctane:tetrahydrofuran (mobile phase A), 2:1 acetone:CH2Cl2 (mobile phase B), 85:15 isopropanol:7.5 mM acetic acid/7.5 mM ethanolamine (mobile phase C) gradient before being detected using evaporative light scattering detection (ELSD) on an SEDEX® 75 detector (Sedere, Inc., Lawrenceville, N.J.). […]

SMILES	Hepatic TG
O=C(O)C1(CCCCCC(O)CCCCCC2(C(=O)O)CC2)CC1 [Compound A, 1,11-bis-(1-carboxy-cyclopropyl)-undecan-6-ol]	0.6 % w/w
CC(C)(CCCCCC(O)CCCCCC(C)(C)C(=O)O)C(=O)O [Compound B]	1.1 % w/w
